Assay results: patent US20130053435A1, “Methods of Treating Alcohol Intoxication, Alcohol Use Disorders and Alcohol Abuse Which Comprises the Administration of Dihydromyricetin” (priority 2011, published 2013)
pIC50: −log10 of the molar value. Several values for one entry are separate records, joined by “and”; a condition that tells them apart may be missing. Identical values can stand only once. Like-named read-outs stand apart in the source and are kept apart here.

What was measured:
GABAARs [1] = system: T1, GABAARs; test: Whole-cell patch-clamp, DGCs in hippocampal slices, acute drug application; format: cell-based, rat
T1 construct: DHM-enhanced Itonic; EC50 on GABAAR-mediated Itonic; other: control (vehicle) cultured neurons, DIV14; other: cultured neurons with EtOH exposure/withdrawal (60 mM, 30 min, 24 hr); EtOH-potentiated Itonic; GABAAR-mediated Ito
Procedure: (§1) Transverse slices (400 μm) of dorsal hippocampus were obtained with a Vibratome (VT 100, Technical Products International, St. Louis, Mo.) and standard techniques known in the art. Slices were continuously perfused with artificial cerebrospinal fluid (ACSF).
(§2) Signals were recorded in voltage-clamp mode with a […] amplifier (Molecular Devices, Sunnyvale, Calif.). Whole cell access resistances were in the range of <25 MΩ before electrical compensation by about 70%. During voltage-clamp recordings, access resistance was monitored by measuring the size of the capacitative transient in response to a 5 mV step command and the data were abandoned if changes >20% were encountered. At least 10 min was allowed for equilibration of the pipette solution with the intracellular milieu before commencing mIPSC recordings.
(§3) Data were analyzed using the Clampfit (Version 9.0, Molecular Devices) and the MiniAnalysis Program (versions 6.0.7, Synaptosoft, Decatur, Ga.).
(§4) The MiniAnalysis program (Synaptosoft, Decatur, Ga.) was used to analyze mIPSCs. Itonic is the averaged baseline currents of a given recording period. Itonic amplitude was calculated as the difference between the holding currents measured before and after picrotoxin (100 μM) or bicuculline (10 μM). […] Briefly, the recordings were low-pass filtered off-line (Clampfit software) at 2 kHz. The mIPSCs were detected (Mini Analysis Program, version 6.0.7) with threshold criteria of 8 pA amplitude and 20 pA*ms charge transfer. The frequency of mIPSCs was determined from all automatically detected events in a given 100 s recording period. For kinetic analysis, only single event mIPSCs with a stable baseline, sharp rising phase (10 to 90% rise time), and exponential decay were chosen during visual inspection of the recording trace. Double and multiple peak mIPSCs were excluded. At least 100 individual mIPSC events were recorded under each experimental condition. The mIPSC kinetics was obtained from analysis of the averaged chosen single events aligned with half rise time in each cell. Decay time constants were obtained by fitting a double exponential to the falling phase of the averaged mIPSCs. Itonic magnitudes were obtained from the averaged baseline current of a given recording period. Itonic amplitude was calculated as the difference between the holding currents measured before and after the application of picrotoxin (50 μM) or bicuculline (10 μM). […] The investigator performing the recordings and mIPSC analysis was blind to the treatment (vehicle, EtOH, E+D, or D) that the rats received.
(§5) As performed previously, whole-cell patch-clamp recordings in dentate gyms granule cells (DGCs) from hippocampal slices in vitro were conducted.

GABAARs [2] = system: T2, GABAARs; test: as above; format: cell-based, rat
T2 construct: DHM-enhanced mIPSCs; other: control (vehicle) cultured neurons, DIV14; other: cultured neurons with EtOH exposure/withdrawal (60 mM, 30 min, 24 hr); EtOH-potentiated mIPSCs; effect on post-synaptic currents (mIPSCs); other: comparative experiments, rat hippocampal slices
Procedure: as §1, §2, §3, §4, §5

[3] = system: EtOH-induced LORR in rats
Procedure: See Kakihana R, et al. (1966) Science 154(756):1574-1575). Briefly, after drug injection, rats were placed in the supine position in a V-shaped support. LORR onset time was taken from the endpoint of drug injection (i.p.). LORR duration ended when the animal was able to flip over three times in 30 s. LORR assays were blindly performed. LORR durations were reported as mean (min)±SEM.
Further LORR assays were conducted as follows.
Additional pre-treatment and post-treatment experiments were also conducted.
See Hunkeler, W., et al. (1981) Nature 290:514-516.

[4] = system: benzodiazepine site of GABAARs; test: [3H]flunitrazepam binding in rat cortical membrane homogenates
Procedure: Standard procedures for preparation of rat cortical membranes for radioligand binding assays were conducted as previously described with modifications in speed and number of centrifugation and washes, and buffer compositions. […] Naïve rat cortex was dissected from brain and homogenized in 0.32 M sucrose, 10 mM HEPES buffer (pH 7.4), and centrifuged at 650×g, 4° C. The subsequent supernatant was centrifuged at 150,000×g to collect the desired membrane-containing pellet. The pellet was washed and centrifuged two more times, first using ice-cold water and second using membrane buffer containing 50 mM KH2PO4, 1 mM EDTA, 2 mM benzamidine HCl, 0.5 mM DTT, 0.1 mM benzethonium HCl, 0.01% bacitracin, 0.2 PMSF (pH 7.4), and the resulting pellet was frozen. On the day of binding assay, the pellet was homogenized in assay buffer containing 50 mM KH2PO4, 1 mM EDTA, 200 mM KCl (pH 7.4) and centrifuged, and resuspended in fresh assay buffer to a final protein concentration of 1 mg/ml. […] Specific binding was defined as the total amount bound (zero unlabeled ligand) minus the binding in the presence of 10 μM final concentration flurazepam (Sigma). Data was analyzed with GraphPad Prism 4.0 Software (San Diego, Calif.) to determine IC50 (One-site competition equation) and Hill slope (Sigmoidal Dose-Response equation). Experiments were conducted in triplicate.

[5] = system: EtOH withdrawal anxiety in rats; test: Elevated plus-maze (EPM) after EtOH withdrawal; format: in vivo, rat
Procedure: 48 hr after injection, rats were sub-divided into 3 groups to measure signs of EtOH withdrawal.
Anxiety and locomotion/ataxia associated with EtOH withdrawal was measured on an elevated plus-maze in EtOH-withdrawn rats (EPM, FIG. 12A). Spent time was measured in minutes. The plus-maze was constructed and the measurements were scored as described previously. See Liang et al. (2004) J Pharmacol Exp Ther 310:1234-1245. Briefly, the maze was elevated 1 m above the floor, and contained four 51 cm-long, 11.5 cm-wide arms arranged at right angles. The closed arms had opaque walls 30 cm high, extending the length of the arm. At the time of the test, each animal was placed in the center of the maze facing an open arm and allowed to explore for a 5-min session. During the session, the animal's behavior (e.g. number of arm entries and time spent in each arm per entry) was recorded on a camcorder

[6] = DHM 0.3 μM, DGCs from naïve rats
[7] = DHM 1 μM, DGCs in hippocampal slices
[8] = comparative experiments, rat hippocampal slices
[9] = DHM 1 mg/kg i.p. 30 min after EtOH i.p.
[10] = DHM 1 mg/kg i.p. 30 min prior to EtOH 3 g/kg i.p.
[11] = EtOH+DHM (E+D) group, 48 hr withdrawal

SMILES: O=C1c2c(O)cc(O)cc2O[C@H](c2cc(O)c(O)c(O)c2)[C@H]1O [DHM, (2R,3R)-3,5,7-trihydroxy-2-(3,4,5-trihydroxyphenyl)-2,3-dihydrochromen-4-one]
- GABAAR-mediated Itonic (GABAARs [1]; [6]): 29.0±6.7 pA
- Itonic (GABAARs [1]; [7]): 44.0±4.1 pA
- Itonic in presence of DHM plus EtOH (GABAARs [1]; DHM (0.3 μM) followed by co-application of 60 mM EtOH): 44.4±3.6 pA
- Itonic in presence of DHM before EtOH (GABAARs [1]; DHM (0.3 μM, FIG. 3 panel c) before EtOH): 41.1±2.2 pA
- EtOH-potentiated Itonic (GABAARs [1]; EtOH 60 mM + DHM 3 μM): 21.0±0.9 pA
- EtOH-potentiated Itonic (GABAARs [1]; EtOH 60 mM followed by co-application of 1 μM DHM): 32.0±2.0 pA
- effect on extrasynaptic GABAAR-mediated tonic current (Itonic) (GABAARs [1]; [8]): potentiates
- mIPSC total charge transfer (area) (GABAARs [2]; [6]): 615±22 fC
- mIPSC area (GABAARs [2]; [7]): 0.72±0.03 nC
- EtOH-potentiated mIPSCs (GABAARs [2]; EtOH 60 mM + DHM 3 μM): 0.70±0.02 nC
- effect on post-synaptic currents (mIPSCs) (GABAARs [2]; [8]): potentiates
- LORR duration remaining from DHM injection [3, 9]: 21 ± 2 min and 19 ± 1.0 min
- remaining LORR, % of control (E+saline) [3, 9]: 41.2±3.8% and 42%
- LORR duration (total) ([3]; DHM 1 mg/kg i.p. 30 min after EtOH i.p. (b63 prints 3 mg/kg)): 49 ± 2 min
- LORR duration [3, 10]: 8 ± 4 min and 8.2 ± 4.1 min
- LORR duration, % of control [3, 10]: 10.6±5.9 % of control
- LORR duration, % of control ([3]; co-administration DHM 1 mg/kg i.p. with EtOH i.p.): 1.2±0.6 % of control
- LORR duration ([3]; co-injection DHM 3 mg/kg and EtOH 3 g/kg i.p.): 2.7 ± 1.7 min
- EtOH-induced LORR duration in female rats ([3]; female rats, combined treatment DHM 1 mg/kg i.p. with EtOH 3 g/kg i.p.): reduction
- concentration at which significant inhibition of [3H]flunitrazepam binding starts [4]: 0.3 µM
- pIC50 ([4]; [3H]flunitrazepam 1 nM, rat cortex membranes, read-out: IC50, inhibition of [3H]flunitrazepam binding): 5.36
- binding to GABAARs in [3H]flunitrazepam binding assay ([4]; comparative experiments): bind GABAARs
- time spent in closed arms ([5]; DHM group, 48 hr): 1.52 ± 0.56 min
- time spent in open arms ([5]; DHM group, 48 hr): 2.92 ± 0.70 min
- time spent in closed arms [5, 11]: 1.88 ± 0.79 min
- time spent in open arms [5, 11]: 2.68 ± 0.77 min
